Experiment [1] concerns the target T1, KRAS (G12D)-HiBit in AsPc-1-KRAS (G12D)-HiBit-KI cell (Homo sapiens, UniProt P01116, G12D).
T1 construct: host or cells: AsPc-1-KRAS (G12D)-HiBit-KI cells (knock-in line)
The experiment is described as follows: G12D HiBit assay. To be noted: 24 hours compound treatment, absolute DC50, read-out: Average PHA DC50. In kind it is cell-based. The method in brief:
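Degradation of endogenous HiBiT-tagged KRAS G12D in AsPc-1 knock-in cells read after 24 h compound exposure (0.015-300 nM, 3-fold steps) by Nano-Glo HiBiT lytic luminescence. Signal normalised to DMSO-only cells; absolute DC50 derived by curve fitting.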
Background: HiBiT is a short tag that completes a luciferase, so light tracks the accessible tagged protein.

For experiment [2], the target named is T2, KRAS in AGS cells (KRAS G12D mutant cell line) or LS180 cells (KRAS G12D mutant cell line) (Homo sapiens, UniProt P01116, G12D).
T2 construct: CRL-187 (LS180) (so in the source); host or cells: AGS or LS180 cells
The experiment is described as follows: KRAS Western Blot (WB) assay. It is filed as cell-based. The settings on record: KRAS degradation, 24 hours incubation, normalized to β-actin. On the procedure: Day 1. Seeded AGS cells (KRAS G12D mutant cell line, ATCC, CRL-1739) or LS180 cells (KRAS G12D mutant cell line, ATCC, CRL-187) into 6-well plates (cell density: 3×10^5 cells/well/2 ml medium) in Ham's F-12 medium (Invitrogen, 11765-054) or Eagle's Minimum Essential Medium (ATCC, 30-2003) and incubated overnight at 37° C. and 5% CO2.
Day 2. Aspirated 1 ml medium from each well and added 1 ml medium containing DMSO or test compound into the well to achieve the desired final concentration. Mixed well by gentle shaking and incubated for 24 hours.
Day 3. Aspirated media from plates; washed cells with 2 ml 4° C. PBS (Solarbio, P1020-500) and aspirated the PBS. Then added 100 μl 4° C. […] lysis buffer (Boston BioProducts BP-115D) with protease and phosphatase inhibitors at vendor recommended concentrations (Roche 05892791001 and 04906837001) into each well to lyse the cells, and incubated for 20 minutes at 4° C. Cell lysate was collected into 1.5 ml Eppendorf tube, and the lysate was sonicated at 4° C. for 2 minutes (5 second pulse at 30% power with 10 second intermissions). The lysate was centrifuged at 12,000 rpm for 15 minutes at 4° C. The supernatant was transferred to a fresh Eppendorf tube, and protein concentration was quantified using a BCA kit (Solarbio, PC0020-500). Mixed the cell lysate and 5×NuPAGE SDS Loading Buffer (Beyotime, P0015L), and heated at 95° C. for 10 minutes in a heat block. Prepared samples were stored at −80° C. until SDS-PAGE procedure.
Day 4. Loaded 15 μg protein from each sample onto NuPAGE® Novex 4-12% Bis-Tris Midi Gel, 26 W (Invitrogen, WG1403BOX) and ran the gel at 120V for 1.5 hours in 1×NuPAGE® MOPS SDS Running Buffer (Novex, NP0001). Electrotransferred to nitrocellulose membrane using dry transfer method (iBlot 2 Transfer Stacks, nitrocellulose, IB23001) with a program consisting of 20V for 1 minute, 23V for 4 minutes and 25V for 2 minutes. Blocked the membrane with 5% BSA (Solarbio, A8020) in 1×TBST (CST, 9997S) for 1 hour at room temperature. Incubated with KRAS antibody (LSBio, LS-C175665, clone 2C1) at 1:1000 dilution and β-actin antibody at 1:1000 dilution (CST, 4970S) in TBST containing 1% BSA (Solarbio, A8020) at 4° C. overnight.
Day 5. Washed nitrocellulose membrane three times with 1×TBST for 10 minutes each at room temperature. Incubated with fluorescently labeled secondary antibodies at 1:5000 dilution in TBST containing 1% BSA (anti-rabbit IgG, Licor, 926-32211; anti-mouse IgG, LI-COR, 926-68070) for 1 hour at room temperature. Washed membrane three times with TBST, 10 minutes each. Scanned the membrane on LiCOR scanner for fluorescent signal(s) and quantified KRAS bands and β-actin bands for normalization.
The data are reported in Table 2, wherein “A” indicates a DC50 of less than 1 μM; “B” indicates a DC50 of greater than or equal to 1 μM and less than 10 μM; and “C” indicates a DC50 of greater than or equal to 10 μM.
For orientation: Immunoblotting shows a protein as a band on a membrane.

For the next experiment, the target named is KRAS G12C (Homo sapiens, UniProt P01116, G12C). To be noted: homozygous and heterozygous tumor cells; cited from earlier work.
Experiment [3] concerns the target T3, KRAS G12D (Homo sapiens, UniProt P01116, G12D). The settings on record: switch II pocket of KRAS G12D; noncovalent; cited from earlier work.
The target in experiment [4] is T3, KRAS G12D. To be noted: cited from earlier work.
Experiment [5] has as its system tumor models harboring KRAS G12D mutations. To be noted: cited from earlier work.

As to `C#Cc1c(F)ccc2cc(O)cc(-c3ncc4c(N5CC6CCC(C5)N6)nc(OC[C@@]56CCCN5[C@H](COC(=O)N5CCC(OCC#Cc7cccc8c7n(C)c(=O)n8C7CCC(=O)NC7=O)CC5)CC6)nc4c3F)c12` (stereo partly drawn) [Compound 033, [(3S,8S)-8-[[4-(3,8-diazabicyclo[3.2.1]octan-3-yl)-7-(8-ethynyl-7-fluoro-3-hydroxy-1-naphthyl)-8-fluoro-pyrido[4,3-d]pyrimidin-2-yl]oxymethyl]-1,2,3,5,6,7-hexahydropyrrolizin-3-yl]methyl 4-[3-[1-(2,6-dioxo-3-piperidyl)-3-methyl-2-oxo-benzimidazol-4-yl]prop-2-ynoxy]piperidine-1-carboxylate], the DC50 in experiment [1] was below 100 nM; in experiment [2] it was “A (DC50 less than 1 μM)”.
Consider `C=C(F)C(=O)N1CCN(c2nc(OC[C@@H]3CCCN3CCCOCCC(=O)N[C@H](C(=O)N3C[C@H](O)C[C@H]3C(=O)NCc3ccc(-c4scnc4C)cc3)C(C)(C)C)nc3c2CCN(c2cccc4cccc(Cl)c24)C3)C[C@@H]1CC#N` [LC-2], for which, on KRAS G12C, the “degradation of KRAS G12C” value is reported as “can rapidly degrade KRAS G12C”.
As for `C#Cc1c(F)ccc2cccc(-c3ncc4c(N5CC6CCC(C5)N6)nc(OC[C@@]56CCCN5[C@H](COC(=O)N5CCC(OCCCc7cccc8c7n(C)c(=O)n8C7CCC(=O)NC7=O)CC5)CC6)nc4c3F)c12` (stereo partly drawn) [Compound 031, [(3S,8S)-8-[[4-(3,8-diazabicyclo[3.2.1]octan-3-yl)-7-(8-ethynyl-7-fluoro-1-naphthyl)-8-fluoro-pyrido[4,3-d]pyrimidin-2-yl]oxymethyl]-1,2,3,5,6,7-hexahydropyrrolizin-3-yl]methyl 4-[3-[1-(2,6-dioxo-3-piperidyl)-3-methyl-2-oxo-benzimidazol-4-yl]propoxy]piperidine-1-carboxylate], the DC50 is below 100 nM in experiment [1] and “A (DC50 less than 1 μM)” in experiment [2].
As for `C#Cc1c(F)ccc2cc(O)cc(-c3ncc4c(N5CC6CCC(C5)N6)nc(OC[C@@]56CCCN5[C@H](COC(=O)NCCOCCOCCOCCNc5cccc7c5C(=O)N(C5CCC(=O)NC5=O)C7=O)CC6)nc4c3F)c12` (stereo partly drawn) [Compound 028, [(3S,8S)-8-[[4-(3,8-diazabicyclo[3.2.1]octan-3-yl)-7-(8-ethynyl-7-fluoro-3-hydroxy-1-naphthyl)-8-fluoro-pyrido[4,3-d]pyrimidin-2-yl]oxymethyl]-1,2,3,5,6,7-hexahydropyrrolizin-3-yl]methylN-[2-[2-[2-[2-[[2-(2,6-dioxo-3-piperidyl)-1,3-dioxo-isoindolin-4-yl]amino]ethoxy]ethoxy]ethoxy]ethyl]carbamate], in experiment [2], the DC50 entry was “C (DC50 greater than or equal to 10 μM)”.
For `C#Cc1c(F)ccc2cc(O)cc(-c3ncc4c(N5CC6CCC(C5)N6)nc(OC[C@@]56CCCN5[C@H](COC(=O)N5CCC(OCCCc7cccc8c7n(C)c(=O)n8C7CCC(=O)NC7=O)CC5)CC6)nc4c3F)c12` (stereo partly drawn) [Compound 032, [(3S,8S)-8-[[4-(3,8-diazabicyclo[3.2.1]octan-3-yl)-7-(8-ethynyl-7-fluoro-3-hydroxy-1-naphthyl)-8-fluoro-pyrido[4,3-d]pyrimidin-2-yl]oxymethyl]-1,2,3,5,6,7-hexahydropyrrolizin-3-yl]methyl4-[3-[1-(2,6-dioxo-3-piperidyl)-3-methyl-2-oxo-benzimidazol-4-yl]propoxy]piperidine-1-carboxylate], the DC50 in experiment [1] is below 100 nM; in experiment [2] it was “A (DC50 less than 1 μM)”.
In the case of `C#Cc1c(F)ccc2cc(O)cc(-c3ncc4c(N5CC6CCC(C5)N6)nc(OC[C@]56CCCN5[C@@H](COC(=O)NCCOCCOCCNc5cccc7c5C(=O)N(C5CCC(=O)NC5=O)C7=O)CC6)nc4c3F)c12` (stereo partly drawn) [Compound 025], the DC50 result in experiment [2] is reported as “C (DC50 greater than or equal to 10 μM)”.
Turning to `C#Cc1c(F)ccc2cc(O)cc(-c3ncc4c(N5CC6CCC(C5)N6)nc(OC[C@@]56CCCN5[C@H](COC(=O)NCCCc5ccc7c(c5)n(C)c(=O)n7C5CCC(=O)NC5=O)CC6)nc4c3F)c12` (stereo partly drawn) [Compound 001, [(3S,8S)-8-[[4-(3,8-diazabicyclo[3.2.1]octan-3-yl)-7-(8-ethynyl-7-fluoro-3-hydroxy-1-naphthyl)-8-fluoro-pyrido[4,3-d]pyrimidin-2-yl]oxymethyl]-1,2,3,5,6,7-hexahydropyrrolizin-3-yl]methyl N-[3-[1-(2,6-dioxo-3-piperidyl)-3-methyl-2-oxo-benzimidazol-5-yl]propyl]carbamate], in experiment [2], the DC50 result is reported as “C (DC50 greater than or equal to 10 μM)”.
As for `C#Cc1c(F)ccc2cc(O)cc(-c3ncc4c(N5CC6CCC(C5)N6)nc(OC[C@]56CCCN5[C@@H](COC(=O)NCCCCCCNc5cccc7c5C(=O)N(C5CCC(=O)NC5=O)C7=O)CC6)nc4c3F)c12` (stereo partly drawn) [Compound 022, [(3R,8R)-8-[[4-(3,8-diazabicyclo[3.2.1]octan-3-yl)-7-(8-ethynyl-7-fluoro-3-hydroxy-1-naphthyl)-8-fluoro-pyrido[4,3-d]pyrimidin-2-yl]oxymethyl]-1,2,3,5,6,7-hexahydropyrrolizin-3-yl]methyl N-[6-[[2-(2,6-dioxo-3-piperidyl)-1,3-dioxo-isoindolin-4-yl]amino]hexyl]carbamate], the DC50 result in experiment [2] is “C (DC50 greater than or equal to 10 μM)”.
For the compound `C#Cc1c(F)ccc2cc(O)cc(-c3ncc4c(N5C[C@H]6CC[C@@H](C5)N6)nc(OC[C@@]56CCCN5[C@H](COC(=O)NCCCCc5cccc7c5n(C)c(=O)n7C5CCC(=O)NC5=O)CC6)nc4c3F)c12` (stereo partly drawn) [Compound 008, ((3S,7aS)-7a-(((4-((1R,5S)-3,8-diazabicyclo[3.2.1]octan-3-yl)-7-(8-ethynyl-7-fluoro-3-hydroxynaphthalen-1-yl)-8-fluoropyrido[4,3-d]pyrimidin-2-yl)oxy)methyl)hexahydro-1H-pyrrolizin-3-yl)methyl (4-(1-(2,6-dioxopiperidin-3-yl)-3-methyl-2-oxo-2,3-dihydro-1H-benzo[d]imidazol-4-yl)butyl)carbamate], in experiment [2], the DC50 result is “B (DC50 greater than or equal to 1 μM and less than 10 μM)”.
Take `C#Cc1c(F)ccc2cc(O)cc(-c3ncc4c(N5CC6CCC(C5)N6)nc(OC[C@@]56CCCN5C[C@H](F)C6)nc4c3F)c12` [MRTX1133]: the binding affinity result on KRAS G12D [3] is given as “picomolar”. Further, at KRAS G12D [4], the “activity in cellular assays” value is “low nanomolar”. The in vivo efficacy result in experiment [5] was “in vivo efficacy”.

The values are drawn from patent US12404285B2, “KRAS G12D proteolysis targeting chimeras” (PAQ Therapeutics Inc., priority 2022, dated 2025).
